ChEMBL document CHEMBL6134868, “Novel Aryl Sulfonium Modification on Vancomycin to Tackle MRSA and VRE In Vitro and In Vivo through Dual Enhanced Cell-Wall and Membrane Inhibition” (J Med Chem, 2025)
In brackets after ≈: the same amount, converted by molar mass.

Key:
Assay type in all cases: functional
Settings in all cases: time 16-24 hrs
[1] = test system: Staphylococcus aureus; experiment: Antibacterial activity against methicillin-resistant Staphylococcus aureus USA300 LAC incubated for 16 to 24 hrs by broth microdilution assay
[2] = test system: Enterococcus faecium; experiment: Antibacterial activity against vancomycin-resistant Enterococcus faecium Efm-HS-08257 harboring VanM phenotype incubated for 16 to 24 hrs by broth microdilution assay
[3] = test system: Enterococcus faecium; experiment: Antibacterial activity against vancomycin-resistant Enterococcus faecium Efm-HS-0649 harboring VanA phenotype incubated for 16 to 24 hrs by broth microdilution assay
[4] = test system: Acinetobacter baumannii; experiment: Antibacterial activity against Acinetobacter baumannii ATCC19606 incubated for 16 to 24 hrs by broth microdilution assay
[5] = test system: Acinetobacter baumannii; experiment: Antibacterial activity against carbapenem-resistant Acinetobacter baumannii CRAB-1 clinical isolate incubated for 16 to 24 hrs by broth microdilution assay
[6] = test system: Staphylococcus aureus; experiment: Antibacterial activity against vancomycin-intermediate Staphylococcus aureus Mu50 incubated for 16 to 24 hrs by broth microdilution assay
[7] = test system: Pseudomonas aeruginosa; experiment: Antibacterial activity against Pseudomonas aeruginosa PAO1 incubated for 16 to 24 hrs by broth microdilution assay
[8] = test system: Enterococcus faecium; experiment: Antibacterial activity against vancomycin-resistant Enterococcus faecium Efm-HS-vb01 harboring VanB phenotype incubated for 16 to 24 hrs by broth microdilution assay
[9] = test system: Escherichia coli; experiment: Antibacterial activity against Escherichia coli AB1157 incubated for 16 to 24 hrs by broth microdilution assay
[10] = test system: Enterococcus faecium; experiment: Antibacterial activity against vancomycin-resistant Enterococcus faecium Efm-HS-vb02 harboring VanB phenotype incubated for 16 to 24 hrs by broth microdilution assay
[11] = test system: Klebsiella pneumoniae; experiment: Antibacterial activity against Klebsiella pneumoniae KP-1 incubated for 16 to 24 hrs by broth microdilution assay

SMILES	MIC [1] [µg/mL]	MIC [2] [µg/mL]	MIC [3] [µg/mL]	MIC [4] [µg/mL]	MIC [5] [µg/mL]	MIC [6] [µg/mL]	MIC [7] [µg/mL]	MIC [8] [µg/mL]	MIC [9] [µg/mL]	MIC [10] [µg/mL]	MIC [11] [µg/mL]
CN[C@H](CC(C)C)C(=O)N[C@H]1C(=O)N[C@@H](CC(N)=O)C(=O)N[C@H]2C(=O)N[C@H]3C(=O)N[C@H](C(=O)N[C@H](C(=O)O)c4cc(O)c(CNCCC[S+](C)CC(O)COc5ccc(-c6ccc(Cl)cc6)cc5)c(O)c4-c4cc3ccc4O)[C@H](O)c3ccc(c(Cl)c3)Oc3cc2cc(c3O[C@@H]2O[C@H](CO)[C@@H](O)[C@H](O)[C@H]2O[C@H]2C[C@](C)(N)[C@H](O)[C@H](C)O2)Oc2ccc(cc2Cl)[C@H]1O.O=C([O-])C(F)(F)F (stereo partly specified)	≤ 0.063	2	0.5	16	16	≤ 0.063	> 128	≤ 0.063	8	≤ 0.063	128
CN[C@H](CC(C)C)C(=O)N[C@H]1C(=O)N[C@@H](CC(N)=O)C(=O)N[C@H]2C(=O)N[C@H]3C(=O)N[C@H](C(=O)N[C@H](C(=O)O)c4cc(O)c(CNCCCSCC(O)COc5ccc(-c6ccc(C(F)(F)F)cc6)cc5)c(O)c4-c4cc3ccc4O)[C@H](O)c3ccc(c(Cl)c3)Oc3cc2cc(c3O[C@@H]2O[C@H](CO)[C@@H](O)[C@H](O)[C@H]2O[C@H]2C[C@](C)(N)[C@H](O)[C@H](C)O2)Oc2ccc(cc2Cl)[C@H]1O (stereo partly specified)	0.125 (≈ 0.0677 µM)	2 (≈ 1.08 µM)	4 (≈ 2.17 µM)	32 (≈ 17.3 µM)	128 (≈ 69.3 µM)	1 (≈ 0.541 µM)	> 128	4 (≈ 2.17 µM)	> 128	2 (≈ 1.08 µM)	> 128
CN[C@H](CC(C)C)C(=O)N[C@H]1C(=O)N[C@@H](CC(N)=O)C(=O)N[C@H]2C(=O)N[C@H]3C(=O)N[C@H](C(=O)N[C@H](C(=O)O)c4cc(O)cc(O)c4-c4cc3ccc4O)[C@H](O)c3ccc(c(Cl)c3)Oc3cc2cc(c3O[C@@H]2O[C@H](CO)[C@@H](O)[C@H](O)[C@H]2O[C@H]2C[C@](C)(NCCC[S+](C)C[C@H](O)COc3ccccc3)[C@H](O)[C@H](C)O2)Oc2ccc(cc2Cl)[C@H]1O.O=C([O-])C(F)(F)F (stereo partly specified)	0.125	16	16	128	> 128	1	> 128	8	128	4	> 128
CN[C@H](CC(C)C)C(=O)N[C@H]1C(=O)N[C@@H](CC(N)=O)C(=O)N[C@H]2C(=O)N[C@H]3C(=O)N[C@H](C(=O)N[C@H](C(=O)NCCC[S+](C)C[C@@H](O)COc4ccccc4)c4cc(O)cc(O)c4-c4cc3ccc4O)[C@H](O)c3ccc(c(Cl)c3)Oc3cc2cc(c3O[C@@H]2O[C@H](CO)[C@@H](O)[C@H](O)[C@H]2O[C@H]2C[C@](C)(N)[C@H](O)[C@H](C)O2)Oc2ccc(cc2Cl)[C@H]1O.O=C([O-])C(F)(F)F (stereo partly specified)	0.25	16	32	64	> 128	2	> 128	16	16	2	> 128
CC(C)C[C@H](C(=O)N[C@H]1C(=O)N[C@@H](CC(N)=O)C(=O)N[C@H]2C(=O)N[C@H]3C(=O)N[C@H](C(=O)N[C@H](C(=O)O)c4cc(O)cc(O)c4-c4cc3ccc4O)[C@H](O)c3ccc(c(Cl)c3)Oc3cc2cc(c3O[C@@H]2O[C@H](CO)[C@@H](O)[C@H](O)[C@H]2O[C@H]2C[C@](C)(N)[C@H](O)[C@H](C)O2)Oc2ccc(cc2Cl)[C@H]1O)N(C)CCC[S+](C)C[C@H](O)COc1ccccc1.O=C([O-])C(F)(F)F (stereo partly specified)	2	128	> 128	> 128	> 128	8	> 128	64	> 128	32	> 128
CN[C@H](CC(C)C)C(=O)N[C@H]1C(=O)N[C@@H](CC(N)=O)C(=O)N[C@H]2C(=O)N[C@H]3C(=O)N[C@H](C(=O)N[C@H](C(=O)NCCC[S+](C)CC(O)COc4ccccc4Cl)c4cc(O)cc(O)c4-c4cc3ccc4O)[C@H](O)c3ccc(c(Cl)c3)Oc3cc2cc(c3O[C@@H]2O[C@H](CO)[C@@H](O)[C@H](O)[C@H]2O[C@H]2C[C@](C)(N)[C@H](O)[C@H](C)O2)Oc2ccc(cc2Cl)[C@H]1O.O=C([O-])C(F)(F)F (stereo partly specified)	0.25	8	16	64	> 128	1	> 128	8	16	2	> 128
